Data on 9 cell lines can be found in the supplement of paper PMC10307832.

Experiment in all cases: relative viability (nuclei count vs DMSO), 5 days (fraction); higher = more cells survive
Compound in assay [1]: C1=CC=C(C(=C1)C2=CC=C(C=C2)C3=CSC4=C3C(=C(C(=O)N4)C#N)O)O + CC(=O)Nc1cccc(-n2c(=O)n(C3CC3)c(=O)c3c(Nc4ccc(I)cc4F)n(C)c(=O)c(C)c32)c1 [Trametinib] (partner 0.02 µM)
In a few lines:
(§1)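 For relative viability, nuclei counts in treated wells were divided by those in vehicle wells. Lung cancer cell lines had been pin-tool dosed in 1536-well plates the day after seeding and cultured for 5 days, then fixed and stained in one step (final 0.05% Triton X-100, 1% formaldehyde, 1 ug/ml Hoechst) and imaged at 4×. Doses were one drug alone or a fixed anchor-drug dose plus five library-drug doses (not always all listed) in √10 steps, and values are duplicate-plate medians.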

Compound in the assay “Ricolinostat + Olaparib”: O=C(CCCCCCNC(=O)c1cnc(N(c2ccccc2)c2ccccc2)nc1)NO [Ricolinostat] + O=C(c1cc(Cc2n[nH]c(=O)c3ccccc23)ccc1F)N1CCN(C(=O)C2CC2)CC1 [Olaparib] (partner 8 µM)
In a few lines:
as §1

Compound in assay [2]: O=C(CCCCCCNC(=O)c1cnc(N(c2ccccc2)c2ccccc2)nc1)NO [Ricolinostat] + N=C(N)NC(=N)NCCc1ccccc1 [Phenformin] (partner 250 µM)
In a few lines: as §1

Compound in assay [3]: O=C(CCCCCCNC(=O)c1cnc(N(c2ccccc2)c2ccccc2)nc1)NO [Ricolinostat] + CC1(C)CCC(c2ccc(Cl)cc2)=C(CN2CCN(c3ccc(C(=O)NS(=O)(=O)c4ccc(N[C@H](CCN5CCOCC5)CSc5ccccc5)c(S(=O)(=O)C(F)(F)F)c4)cc3)CC2)C1 [Navitoclax] (partner 0.5 µM)
In a few lines: as §1

In the case of NCI-H1437, the relative viability in assay [1] (first compound 0.08 µM) is 0.485; in assay [1] (first compound 0.253 µM), 0.606; in assay [1] (first compound 0.8 µM), 0.534; in assay [1] (first compound 2.53 µM) it was 0.518; in assay [1] (first compound 8 µM), 0.298; with Ricolinostat + Olaparib (first compound 0.08 µM) it was 0.628. The relative viability with Ricolinostat + Olaparib (first compound 0.253 µM) was 0.595; with Ricolinostat + Olaparib (first compound 0.8 µM), 0.598; with Ricolinostat + Olaparib (first compound 2.53 µM), 0.409; in assay [2] (first compound 0.08 µM), 0.23; in assay [2] (first compound 0.253 µM) it was 0.561; in assay [2] (first compound 0.8 µM), 0.292. Besides, the relative viability was 0.23 in assay [2] (first compound 2.53 µM); 1 in assay [3] (first compound 0.08 µM); 1.07 in assay [3] (first compound 0.253 µM); 1.02 in assay [3] (first compound 0.8 µM); 0.831 in assay [3] (first compound 2.53 µM).
On to SK-MES-1, for which the relative viability in assay [1] (first compound 0.08 µM) stood at 0.588; in assay [1] (first compound 0.253 µM) it was 0.625; in assay [1] (first compound 0.8 µM), 0.582; in assay [1] (first compound 2.53 µM) it was 0.554; in assay [1] (first compound 8 µM) it was 0.551; with Ricolinostat + Olaparib (first compound 0.08 µM), 0.713. Further, the relative viability in the assay with Ricolinostat + Olaparib (first compound 0.253 µM) turned out to be 0.712; in the assay with Ricolinostat + Olaparib (first compound 0.8 µM), 0.691; with Ricolinostat + Olaparib (first compound 2.53 µM), 0.681; in assay [2] (first compound 0.08 µM), 0.597; in assay [2] (first compound 0.253 µM) it was 0.599; in assay [2] (first compound 0.8 µM) it was 0.678. The relative viability in assay [2] (first compound 2.53 µM) was determined as 0.672; in assay [3] (first compound 0.08 µM) it was 1.07; in assay [3] (first compound 0.253 µM), 1.22; in assay [3] (first compound 0.8 µM) it was 1.21; in assay [3] (first compound 2.53 µM), 1.23.
Consider NCI-H647, for which the relative viability is 0.422 in assay [1] (first compound 0.253 µM); 0.57 in assay [1] (first compound 0.8 µM); 0.493 in assay [1] (first compound 2.53 µM); 0.25 in assay [1] (first compound 8 µM); 0.446 with Ricolinostat + Olaparib (first compound 0.08 µM); 0.521 with Ricolinostat + Olaparib (first compound 0.253 µM). Besides, the relative viability stood at 0.465 in the assay with Ricolinostat + Olaparib (first compound 0.8 µM); 0.261 with Ricolinostat + Olaparib (first compound 2.53 µM); 0.397 in assay [2] (first compound 0.08 µM); 0.512 in assay [2] (first compound 0.253 µM); 0.563 in assay [2] (first compound 0.8 µM); 0.275 in assay [2] (first compound 2.53 µM). The relative viability in assay [3] (first compound 0.08 µM) came out at 0.806; in assay [3] (first compound 0.253 µM), 1.12; in assay [3] (first compound 0.8 µM), 1.09; in assay [3] (first compound 2.53 µM) it was 1.09.
On to LK-2, for which the relative viability in assay [1] (first compound 0.08 µM) was found to be 0.594; in assay [1] (first compound 0.253 µM), 0.609; in assay [1] (first compound 0.8 µM), 0.95; in assay [1] (first compound 2.53 µM), 0.745; in assay [1] (first compound 8 µM), 0.598; with Ricolinostat + Olaparib (first compound 0.08 µM) it was 0.623. The relative viability in the assay with Ricolinostat + Olaparib (first compound 0.253 µM) worked out at 0.687; in the assay with Ricolinostat + Olaparib (first compound 0.8 µM), 0.691; in the assay with Ricolinostat + Olaparib (first compound 2.53 µM), 0.575; in assay [2] (first compound 0.08 µM), 0.415; in assay [2] (first compound 0.253 µM), 0.547; in assay [2] (first compound 0.8 µM), 0.499. Further, the relative viability worked out at 0.449 in assay [2] (first compound 2.53 µM); 0.841 in assay [3] (first compound 0.08 µM); 0.898 in assay [3] (first compound 0.253 µM); 0.811 in assay [3] (first compound 0.8 µM); 0.842 in assay [3] (first compound 2.53 µM).
On to LU99A, for which the relative viability is 0.566 in assay [1] (first compound 0.08 µM); 0.589 in assay [1] (first compound 0.253 µM); 0.596 in assay [1] (first compound 0.8 µM); 0.585 in assay [1] (first compound 2.53 µM); 0.605 in assay [1] (first compound 8 µM); 0.281 in the assay with Ricolinostat + Olaparib (first compound 0.08 µM). The relative viability came to 0.255 with Ricolinostat + Olaparib (first compound 0.253 µM); 0.206 with Ricolinostat + Olaparib (first compound 0.8 µM); 0.175 in the assay with Ricolinostat + Olaparib (first compound 2.53 µM); 0.738 in assay [2] (first compound 0.08 µM); 0.705 in assay [2] (first compound 0.253 µM); 0.716 in assay [2] (first compound 0.8 µM). Further, the relative viability in assay [2] (first compound 2.53 µM) was found to be 0.597; in assay [3] (first compound 0.08 µM) it was 0.782; in assay [3] (first compound 0.253 µM), 0.701; in assay [3] (first compound 0.8 µM), 0.603; in assay [3] (first compound 2.53 µM) it was 0.491.
With NCI-H520, the relative viability was 0.5 in assay [1] (first compound 0.08 µM); 0.733 in assay [1] (first compound 0.253 µM); 0.779 in assay [1] (first compound 0.8 µM); 0.613 in assay [1] (first compound 2.53 µM); 0.443 in assay [1] (first compound 8 µM); 0.305 in the assay with Ricolinostat + Olaparib (first compound 0.253 µM). Besides, the relative viability with Ricolinostat + Olaparib (first compound 0.8 µM) was 0.343; with Ricolinostat + Olaparib (first compound 2.53 µM), 0.271; in assay [2] (first compound 0.253 µM), 0.732; in assay [2] (first compound 0.8 µM) it was 0.578; in assay [2] (first compound 2.53 µM) it was 0.498; in assay [3] (first compound 0.253 µM), 1.11. In addition, the results for the relative viability in assay [3] (first compound 0.8 µM) and in assay [3] (first compound 2.53 µM) were 1.01 and 1.02, respectively.
HCC-78: the relative viability in assay [1] (first compound 0.08 µM) amounted to 0.916; in assay [1] (first compound 0.253 µM), 1.27; in assay [1] (first compound 0.8 µM), 0.972; in assay [1] (first compound 2.53 µM), 0.728; in assay [1] (first compound 8 µM), 0.628; in the assay with Ricolinostat + Olaparib (first compound 0.253 µM), 0.788. In addition, the relative viability was 0.735 with Ricolinostat + Olaparib (first compound 0.8 µM); 0.448 with Ricolinostat + Olaparib (first compound 2.53 µM); 0.761 in assay [2] (first compound 0.253 µM); 0.596 in assay [2] (first compound 0.8 µM); 0.428 in assay [2] (first compound 2.53 µM); 0.771 in assay [3] (first compound 0.253 µM). Further, the results for the relative viability in assay [3] (first compound 0.8 µM) and in assay [3] (first compound 2.53 µM) were 0.561 and 0.435, respectively.
Regarding NCI-H1666, the relative viability was determined as 0.819 in assay [1] (first compound 0.08 µM); 1.13 in assay [1] (first compound 0.253 µM); 0.935 in assay [1] (first compound 0.8 µM); 0.861 in assay [1] (first compound 2.53 µM); 0.803 in assay [1] (first compound 8 µM); 0.708 in the assay with Ricolinostat + Olaparib (first compound 0.08 µM). For the same cell line, the relative viability stood at 0.709 with Ricolinostat + Olaparib (first compound 0.253 µM); 0.695 with Ricolinostat + Olaparib (first compound 0.8 µM); 0.829 with Ricolinostat + Olaparib (first compound 2.53 µM); 0.481 in assay [2] (first compound 0.08 µM); 0.572 in assay [2] (first compound 0.253 µM); 0.547 in assay [2] (first compound 0.8 µM). The relative viability was 0.521 in assay [2] (first compound 2.53 µM); 0.909 in assay [3] (first compound 0.08 µM); 1.12 in assay [3] (first compound 0.253 µM); 0.816 in assay [3] (first compound 0.8 µM); 0.471 in assay [3] (first compound 2.53 µM).
With EKVX, the relative viability turned out to be 0.358 in assay [1] (first compound 0.08 µM); 0.436 in assay [1] (first compound 0.253 µM); 0.462 in assay [1] (first compound 0.8 µM); 0.378 in assay [1] (first compound 2.53 µM); 0.318 in assay [1] (first compound 8 µM); 0.638 with Ricolinostat + Olaparib (first compound 0.08 µM). Moreover, the relative viability came out at 0.897 with Ricolinostat + Olaparib (first compound 0.253 µM); 0.853 with Ricolinostat + Olaparib (first compound 0.8 µM); 0.836 with Ricolinostat + Olaparib (first compound 2.53 µM); 0.201 in assay [2] (first compound 0.08 µM); 0.251 in assay [2] (first compound 0.253 µM); 0.222 in assay [2] (first compound 2.53 µM). Moreover, the relative viability in assay [3] (first compound 0.253 µM) was 0.805; in assay [3] (first compound 0.8 µM), 0.842; in assay [3] (first compound 2.53 µM), 1.02.
